Among the data in US10070645B2, “N-cycloalkyl-N-{[2-(1-substitutedcycloalkyl)phenyl]methylene}-(thio)carboxamide derivatives” (BAYER CROPSCIENCE AKTIENGESELLSCHAFT, priority 2013, dated 2018) are chromatographic logP and logP values, retold here.

Molecules are shown by their SMILES.

A short description of this data set: log P by HPLC on a reversed-phase column (C 18), EEC Directive 79/831 Annex V.A8. It counts as physicochemical. Particulars: for chromatographic logP: reversed-phase HPLC column (C 18); for logP: 40° C., linear gradient 10% to 90% acetonitrile. The method, boiled down:
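Reversed-phase C18 HPLC at 40° C, 0.1% aqueous formic acid/acetonitrile gradient from 10% to 90% acetonitrile. log P derived from retention times by linear interpolation between unbranched alkan-2-ones (3–16 carbons) of known log P.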

Where [1] appears, read: Table 3 (amines of formula II), HPLC C 18, 40° C., 0.1% aqueous formic acid and acetonitrile.
The mark [2] stands for this setting: HPLC, reversed-phase column (C 18), 0.1% aqueous formic acid and acetonitrile.
Setting [3] is: HPLC on reversed-phase column (C 18), 0.1% aqueous formic acid and acetonitrile.

Regarding `CC1(c2ccc(Cl)cc2CNC2CC2)CC1` [II.10, N-[5-chloro-2-(1-methylcyclopropyl)benzyl]cyclopropanamine], the chromatographic logP under setting [1] came out at 1.7.

In the case of `CC(C)c1ccc(CN(C(=O)c2c(C(F)F)nn(C)c2F)C2CC2)c(C2(C)CC2)c1` [I.025], the logP under setting [2] is 4.90.

`Cc1ccc(C2(C)CC2)c(CN(C(=S)c2c(C(F)F)nn(C)c2Cl)C2CC2)c1` [I.074] came in with a logP under setting [2] of 4.98.

Consider `Cn1nc(C(F)F)c(C(=O)N(Cc2ccc(C3=CCOCC3)cc2C2(C)CC2)C2CC2)c1F` [I.037], for which the logP under setting [2] is reported as 3.94.

Consider `Cn1nc(C(F)F)c(C(=S)N(Cc2cc(F)c(F)cc2C2(C)CC2)C2CC2)c1Cl` [I.050], for which the logP under setting [2] worked out at 4.90.

Under setting [2], `COc1ccc(CN(C(=S)c2c(C(F)F)nn(C)c2Cl)C2CC2)c(C2(C)CC2)c1` [I.031] gave a logP of 4.51.

Regarding `Cn1nc(C(F)F)c(C(=O)N(Cc2cccc(Cl)c2C2(C)CC2)C2CC2)c1Cl` [I.006], the logP under setting [2] is given as 4.44.

Consider `Cn1nc(C(F)F)c(C(=O)N(Cc2cccc(F)c2C2(C)CC2)C2CC2)c1F` [I.008], for which the logP under setting [2] was 3.89.

In the case of `Cc1ccc(C2(C)CC2(Cl)Cl)c(CN(C(=O)c2c(C(F)F)nn(C)c2F)C2CC2)c1F` (racemic) [I.179], the logP under setting [3] turned out to be 4.41.

Compound `Cn1nc(C(F)F)c(C(=O)N(Cc2c(Br)cccc2C2(C(F)F)CC2)C2CC2)c1F` [I.155] returned a logP under setting [2] of 3.76.

Compound `Cc1cc(CN(C(=O)c2c(C(F)F)nn(C)c2F)C2CC2)c(C2(C)CC2)cc1C` [I.051] gave a logP under setting [2] of 4.36.

In turn, `N#CC1(c2ccc(Cl)cc2CNC2CC2)CC1` [II.20, 1-{4-chloro-2-[(cyclopropylamino)methyl]phenyl}cyclopropanecarbonitrile] returned a chromatographic logP under setting [1] of 0.77.

Under setting [1], `CCCC1(c2ccc(C)cc2CNC2CC2)CC1` [II.33, N-[5-methyl-2-(1-propylcyclopropyl)benzyl]cyclopropanamine] registered a chromatographic logP of 1.81.

Take `Cn1nc(C(F)F)c(C(=O)N(Cc2cc(C3CC3)ccc2C2(C)CC2(Cl)Cl)C2CC2)c1F` (racemic) [I.169]: the logP under setting [3] was 4.59.

Turning to `Cn1nc(C(F)F)c(C(=O)N(Cc2c(C(F)(F)F)cccc2C2(C)CC2Cl)C2CC2)c1F` (centres unmarked) [I.141], under setting [2], the logP is reported as 4.46.

`CCCC1(c2cc(Cl)ccc2CN(C(=O)c2c(C(F)F)nn(C)c2F)C2CC2)CC1` [I.128] gave a logP under setting [2] of 5.14.

`Cc1ccc(C2(C)CC2)c(CN(C(=O)c2c(C(F)F)nn(C)c2Cl)C2(C)CC2)c1` [I.077] registered a logP under setting [2] of 4.63.

Take `COC1(c2ccc(C)cc2CN(C(=O)c2c(C(F)F)nn(C)c2F)C2CC2)CC1` [I.122]: the logP under setting [2] is 3.57.

`Cn1nc(C(F)F)c(C(=S)N(Cc2cc(Cl)ccc2C2(C)CC2)C2CC2)c1F` [I.062] yielded a logP under setting [2] of 4.82.

On to `Cc1ccc(C2(Cl)CC2)c(CN(C(=O)c2c(C(F)F)nn(C)c2Cl)C2CC2)c1` [I.133], for which the logP under setting [2] was 4.06.

Compound `Cc1ccc(C2(C)CC2(Cl)Cl)c(CN(C(=O)c2c(C(F)F)nn(C)c2F)C2CC2)c1` (racemic) [I.172] came in with a logP under setting [3] of 4.24.

As for `CCC1(c2ccccc2CN(C(=O)c2c(C(F)F)nn(C)c2F)C2CC2)CC1` [I.096], the logP under setting [2] was 4.21.

As for `CCC1(c2cc(C(F)(F)F)ccc2CNC2CC2)CC1` [II.24, N-[2-(1-ethylcyclopropyl)-4-(trifluoromethyl)benzyl]cyclopropanamine], the chromatographic logP under setting [1] is 1.95.

Turning to `Cn1nc(C(F)F)c(C(=O)N(Cc2ccc(Cl)cc2C2(C)CC2)C2CC2)c1F` [I.018], under setting [2], the logP turned out to be 4.43.

Take `CCC1(c2cc(C(F)(F)F)ccc2C=O)CC1` [IV.17, 2-(1-ethylcyclopropyl)-4-(trifluoromethyl)benzaldehyde]: for the setting “Table 4 (aldehydes of formula IV), HPLC C 18, 40° C., 0.1% aqueous formic acid and acetonitrile”, the chromatographic logP stood at 4.29.

In turn, `CCC1(c2ccc(C)cc2CNC2CC2)CC1` [II.30, N-[2-(1-ethylcyclopropyl)-5-methylbenzyl]cyclopropanamine] yielded a chromatographic logP under setting [1] of 1.63.

In the case of `Cc1ccc(C2(C3CC3)CC2)c(CNC2CC2)c1` [II.35, N-{2-[1,1′-bi(cyclopropyl)-1-yl]-5-methylbenzyl}cyclopropanamine], under setting [1], the chromatographic logP came to 1.67.

The compound `CCOC1(c2ccc(C)cc2CN(C(=O)c2c(C(F)F)nn(C)c2Cl)C2CC2)CC1` [I.138] had a logP under setting [2] of 4.21.

Regarding `Cc1ccc(C2(C(F)F)CC2)c(CNC2CC2)c1` [II.40, N-{2-[1-(difluoromethyl)cyclopropyl]-5-methylbenzyl}cyclopropanamine], under setting [1], the chromatographic logP was found to be 1.09.

With `Cn1nc(C(F)F)c(C(=O)N(Cc2ccc(-c3ccccc3)cc2C2(C)CC2)C2CC2)c1F` [I.033], the logP under setting [2] turned out to be 4.93.

In the case of `Cn1nc(C(F)F)c(C(=S)N(Cc2cccc(F)c2C2(C)CC2)C2CC2)c1Cl` [I.011], the logP under setting [2] was 4.64.

Under setting [2], `Cc1ccc(C2(Cl)CC2)c(CN(C(=O)c2c(C(F)F)nn(C)c2F)C2CC2)c1` [I.132] came in with a logP of 3.89.

Regarding `Cn1nc(C(F)F)c(C(=O)N(Cc2ccc(F)cc2C2(C)CC2)C2CC2)c1F` [I.021], under setting [2], the logP is listed as 3.92.

Take `Cn1nc(C(F)F)c(C(=O)N(Cc2ccc(-c3cccc(F)c3)cc2C2(C)CC2)C2CC2)c1F` [I.038]: the lipophilicity (logP) under setting [2] is 4.96.

As to `Cn1nc(C(F)F)c(C(=O)N(Cc2cc(Br)ccc2C2(C)CC2)C2CC2)c1F` [I.058], the lipophilicity (logP) under setting [2] was 4.36.

As for `C=C(C)c1cccc(CN(C(=O)c2c(C(F)F)nn(C)c2F)C2CC2)c1C1(C)CC1` [I.015], under setting [2], the logP is listed as 4.64.

With `Cn1nc(C(F)F)c(C(=S)N(Cc2cc(Cl)ccc2C2(C)CC2)C2CC2)c1Cl` [I.063], the logP under setting [2] was 5.03.

Compound `Cn1nc(C(F)F)c(C(=O)N(Cc2ccc(-c3cccnc3)cc2C2(C)CC2)C2CC2)c1F` [I.044] registered a logP under setting [2] of 2.35.

Under setting [2], `Cn1nc(C(F)F)c(C(=S)N(Cc2cccc(F)c2C2(C)CC2)C2CC2)c1F` [I.010] registered a logP of 4.49.

Compound `CCC1(c2ccccc2CNC2CC2)CC1` [II.23, N-[2-(1-ethylcyclopropyl)benzyl]cyclopropanamine] showed a chromatographic logP under setting [1] of 1.52.

In turn, `COc1ccc(CN(C(=O)c2c(C(F)F)nn(C)c2Cl)C2CC2)c(C2(C)CC2)c1` [I.029] gave a logP under setting [2] of 3.83.

Consider `Cc1ccc(C2(C)CC2)c(CN(C(=O)c2c(C(F)F)nn(C)c2F)C2(C#N)CC2)c1` [I.076], for which the logP under setting [2] is given as 3.73.

On to `Cn1nc(C(F)F)c(C(=O)N(Cc2ccc(C3CC3)cc2C2(C)CC2)C2CC2)c1F` [I.020], for which, under setting [2], the logP was found to be 4.51.

With `Cn1nc(C(F)F)c(C(=O)N(Cc2cccc(C3=CCCCC3)c2C2(C)CC2)C2CC2)c1F` [I.014], under setting [2], the logP worked out at 5.59.

Turning to `Cn1nc(C(F)F)c(C(=O)N(Cc2cc(C3CC3)ccc2C2(C)CC2)C2CC2)c1F` [I.064], the logP under setting [2] turned out to be 4.56.

Turning to `CCC1(c2ccc(C(F)(F)F)cc2CNC2CC2)CC1` [II.28, N-[2-(1-ethylcyclopropyl)-5-(trifluoromethyl)benzyl]cyclopropanamine], the chromatographic logP under setting [1] worked out at 1.82.

Consider `Cn1nc(C(F)F)c(C(=O)N(Cc2cc(Cl)ccc2C2(C(F)F)CC2)C2CC2)c1F` [I.149], for which the logP under setting [2] worked out at 3.70.

Turning to `Cc1ccccc1-c1ccc(CN(C(=O)c2c(C(F)F)nn(C)c2F)C2CC2)c(C2(C)CC2)c1` [I.035], the logP under setting [2] came to 5.26.

As to `C#CC1(c2ccc(Cl)cc2CNC2CC2)CC1` [II.16, N-[5-chloro-2-(1-ethynylcyclopropyl)benzyl]cyclopropanamine], the chromatographic logP under setting [1] turned out to be 1.22.

`Cn1nc(C(F)F)c(C(=O)N(Cc2ccc(Oc3ccccc3)cc2C2(C)CC2)C2CC2)c1F` [I.032]: under setting [2], the logP came out at 4.91.

`Cc1ccc(C2(C)CC2Cl)c(CN(C(=O)c2c(C(F)F)nn(C)c2F)C2CC2)c1Cl` (centres unmarked) [I.140] gave a logP under setting [2] of 4.58.

`CCC1(c2cc(C)c(F)cc2CN(C(=O)c2c(C(F)F)nn(C)c2Cl)C2CC2)CC1` [I.107] gave a logP under setting [2] of 4.85.

With `Cn1nc(C(F)F)c(C(=O)N(Cc2cc(Cl)ccc2C2(C#N)CC2)C2CC2)c1F` [I.094], the logP under setting [2] came to 3.13.

Turning to `Cc1ccc(C2(C)CC2(Cl)Cl)c(CN(C(=O)c2c(C(F)F)nn(C)c2Cl)C2CC2)c1Cl` (racemic) [I.177], the log partition coefficient (logP) under setting [3] is given as 4.78.

Under “preparation examples”, `CC1(c2ccc(Cl)cc2Br)CC1` [2-bromo-4-chloro-1-(1-methylcyclopropyl)benzene] showed a chromatographic logP of 4.93.

The compound `Cn1nc(C(F)F)c(C(=O)N(Cc2c(C3(C)CC3(Cl)Cl)ccc(Cl)c2F)C2CC2)c1F` (racemic) [I.176] registered a log partition coefficient (logP) under setting [3] of 4.46.

`Cn1nc(C(F)F)c(C(=O)N(Cc2ccc(F)cc2C2(C)CC2)C2CC2)c1Cl` [I.022] had a logP under setting [2] of 4.06.

As for `C#CC1(c2ccc(Cl)cc2CN(C(=O)c2c(C(F)F)nn(C)c2Cl)C2CC2)CC1` [I.091], the logP under setting [2] is recorded as 3.89.

Regarding `COc1cc(CN(C(=O)c2c(C(F)F)nn(C)c2F)C2CC2)c(C2(C)CC2)cc1OC` [I.053], the lipophilicity (logP) under setting [2] came to 3.33.
